Laboratory results taken from PMC9098866, “Signal transduction in light-oxygen-voltage receptors lacking the active-site glutamine” (Nature Communications, 2022).

What was measured:
[1] = target: T1, A. sativa phototropin 1 LOV2 (AsLOV2) (Avena sativa, UniProt O49003, Q513L); test: X-ray crystal structure; assay type: binding; details: dark-adapted 0.90 A (7PGZ) and blue-light freeze-trapped 0.98 A (7PH0); light: thioadduct with C450 (covalent, modelled noncovalent); sodium acetate pH 4.6-5.0
T1 construct: gene NPH1-1; LOV2 domain residues 404-546 with flanking A'alpha and Jalpha helices; E. coli expression; N-terminal His6-SUMO tag cut by Senp2, leaving N-terminal GEF extension

[2] = target: T2, A. sativa phototropin 1 LOV2 (AsLOV2) (Avena sativa, UniProt O49003); test: X-ray crystal structure; assay type: binding; details: dark-adapted 1.00 A (7PGX) and blue-light freeze-trapped 1.09 A (7PGY); light: thioadduct with C450 (covalent, not seen in density, modelled noncovalent); sodium acetate pH 4.6-5.0
T2 construct: gene NPH1-1; LOV2 domain residues 404-546 with flanking A'alpha and Jalpha helices; E. coli expression; N-terminal His6-SUMO tag cut by Senp2, leaving N-terminal GEF extension
T2 sequence (O49003 entry or part of it): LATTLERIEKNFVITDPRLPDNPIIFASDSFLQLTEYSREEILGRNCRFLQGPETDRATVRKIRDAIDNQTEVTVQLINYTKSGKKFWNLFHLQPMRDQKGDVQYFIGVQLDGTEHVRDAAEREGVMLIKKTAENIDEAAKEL

T1 sequence (O49003 entry or part of it Q513L): as the sequence (O49003 entry or part of it) above, with Q110L counted along it

## Cc1cc2nc3c(=O)[nH]c(=O)nc-3n(C[C@H](O)[C@H](O)[C@H](O)COP(=O)(O)O)c2cc1C [flavin mononucleotide]
[1]
  X-ray crystal structure: the cofactors were generally modeled as noncovalently bound oxidized flavin mononucleotides
[2]
  X-ray crystal structure: 7pgx (wild-type, dark), 7pgy (wild-type, light), 7pgz (Q513L, dark), and 7ph0 (Q513L, light)
